Results published in PubChem BioAssay (NCI).
“And” between values parts separate entries of the source, which are not always exact repeats. Equal values may be shown once.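 How tested: cells in 96-well plates exposed to compound for 48 hours at five concentrations. Here, GI50 denotes the concentration required for 50% inhibition of growth. TGI is the concentration that stops growth completely.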

Experiments:
Test in all cases: NCI-60 cell line screen, 48 h
A549 NSCLC = test system: A549 NSCLC
COLO 205 colon = test system: COLO 205 colon
DU-145 prostate = test system: DU-145 prostate
HCC-2998 colon = test system: HCC-2998 colon
IGROV1 ovarian = test system: IGROV1 ovarian
NCI-H23 lung = test system: NCI-H23 lung
SNB-19 CNS = test system: SNB-19 CNS
T-47D breast = test system: T-47D breast
UACC-62 melanoma = test system: UACC-62 melanoma

Compound | TGI (A549 NSCLC) | TGI (COLO 205 colon) | TGI (DU-145 prostate) | TGI (HCC-2998 colon) | TGI (IGROV1 ovarian) | TGI (NCI-H23 lung) | TGI (SNB-19 CNS) | TGI (T-47D breast) | TGI (UACC-62 melanoma) | GI50 (A549 NSCLC) | GI50 (DU-145 prostate) | GI50 (HCC-2998 colon) | GI50 (NCI-H23 lung) | GI50 (SNB-19 CNS) | GI50 (T-47D breast) | GI50 (UACC-62 melanoma) | GI50 (IGROV1 ovarian)
CC(C)OC(=O)OCSc1ccccc1N=Cc1cccc([N+](=O)[O-])c1 | > 10 µM | > 10 µM | > 10 µM | > 10 µM | > 10 µM | > 10 µM | > 10 µM | > 10 µM | > 10 µM |  |  |  |  |  |  |  | 
CCOC(=O)/C=C(\C(=O)OCC)n1ccc(=O)n(Cc2cn(COCCOC(C)=O)nn2)c1=O | > 100 µM | 24.2 µM | > 100 µM | 30.2 µM | 44.3 µM | 32.6 µM | > 89.5 µM | 55.8 µM | 38.6 µM |  |  |  |  |  |  |  | 
C=C(CN(C)C)C(=O)c1ccccc1[N+](=O)[O-] | > 70.5 µM and 41.1 µM | 21.2 µM | 52.3 µM and 28.2 µM | > 56.5 µM and 29.2 µM | 52.7 µM | 32.7 µM and 66.1 µM | > 68.2 µM and 47.7 µM | 18.6 µM and 28.6 µM | 32.9 µM and 31.1 µM | 22.2 µM | 15 µM | 15.3 µM | 20.7 µM | 23.3 µM | 5.68 µM | 13.1 µM | 
CC(=O)c1cnc2oc3ccc(O)cc3c2c1-c1ccccc1 | > 100 µM | > 100 µM | > 100 µM | > 100 µM | 45 µM | > 100 µM | > 100 µM | 80.4 µM | 70.4 µM |  |  |  |  |  |  |  | 5.04 µM
O=C(N/N=C/c1ccc(Br)cc1)N/N=C/c1ccc(Br)cc1 | > 100 µM | > 100 µM | > 100 µM | 91.4 µM | 27.7 µM | > 100 µM | 16.6 µM | > 100 µM | 41.2 µM |  |  |  |  |  |  |  | 
CCOC(=O)c1cn2c(n1)sc1cc(Cl)cc(Cl)c12 | > 100 µM | > 100 µM | > 100 µM | > 100 µM | > 100 µM | > 100 µM | > 100 µM | > 100 µM | > 100 µM |  |  |  |  |  |  |  | 
CNC(=O)CCCNC(=O)CCCC(=O)N(C)C | > 100 µM | > 100 µM | > 100 µM | > 100 µM | > 100 µM | > 100 µM | > 100 µM | > 100 µM | > 100 µM |  |  |  |  |  |  |  | 
NC(=O)N/N=C1\CC2C3CC4C2C4C13 (stereo not given) | > 100 µM | > 100 µM | > 100 µM | > 100 µM | > 100 µM | > 100 µM | > 100 µM | > 100 µM | > 100 µM |  |  |  |  |  |  |  | 
C[n+]1c(-c2ccc(/C=C/C=N\NC(=O)c3ccc(C(=O)N/N=C\C=C\c4ccc(-c5cn6ccccc6[n+]5C)cc4)cc3)cc2)cn2ccccc21 | > 100 µM | > 100 µM | 97.6 µM | > 100 µM | > 100 µM | > 100 µM | > 100 µM | > 80.2 µM | > 100 µM |  |  |  |  |  |  |  | 
C\C(=N/N=C1/C(=C\N(C)C)C(=O)NC(=O)N1C)c1ccc(Cl)cc1 | > 100 µM | > 100 µM | > 100 µM | > 100 µM | > 100 µM | > 100 µM | > 100 µM | > 100 µM | > 100 µM |  |  |  |  |  |  |  | 
O=c1cc(-c2ccccc2)oc2c(-c3cc(Cl)cc4c(=O)cc(-c5ccccc5)oc34)cc(Cl)cc12 | > 100 µM | > 100 µM | > 100 µM | > 100 µM | > 100 µM | > 100 µM | > 100 µM | 75.6 µM | 48.4 µM |  |  |  |  |  |  |  | 
COc1cc2c(cc1Cc1c(F)cccc1Cl)nc(-c1c(F)cccc1Cl)n2Cc1c(F)cccc1Cl | > 100 µM | > 100 µM | > 100 µM | 76.7 µM | > 100 µM | > 100 µM | > 100 µM | 59.5 µM | > 100 µM |  |  |  |  |  |  |  | 
CC(C)(C)c1cc(C(=O)/C=C/c2ccc3c(c2)OCO3)cc(C(C)(C)C)c1O | > 86.6 µM | 13.2 µM | > 58 µM | 3.74 µM | > 100 µM | > 86.4 µM | > 70.2 µM | 23.8 µM | > 45.5 µM |  |  |  |  |  |  |  | 
